Measured values published in PMC10220892 (Pharmaceutics, 2023).
≈ marks a conversion by molar mass, not a printed value.

What was measured:
EGFR [1] = target: T1, EGFR (Homo sapiens, UniProt P00533); design: method as in PMID 27132165; conditions: read-out: IC50 EGFR kinase; cited from earlier work
[2] = tested on: panel of 76 tyrosine kinases; assay: Kinase selectivity screen (HTRF KinEASE-TK); type: biochemical; conditions: 1 μM, 76 kinases
Protocol: (§1) IC50 determinations for EGFR were performed with the Z’-LYTE technology platform (Life Technologies), according to the manufacturer’s instructions. The enzyme activity assays of compound SMUZ106 were performed at a single-point concentration (1 μM) against 76 kinases by using the HTRF KinEASE-TK assay according to the manufacturer’s instructions.

[3] = Pharmacokinetics study in mice; type: in vivo; conditions: male, Kunming, mouse, plasma
Protocol: A total of 72 male Kunming mice with an average weight of 20 g were purchased from Southern Medical University (Guangzhou, China) and divided into three groups, with […]. SMUZ106 was dissolved in 0.5% CMC-Na to prepare a suspension for oral administration (100 mg/kg). […] For the intravenous and oral administration, blood samples (0.5 mL) were collected from the mice’s orbital veins and placed into heparinized tubes at 0.25, 0.5, 1, 2, 6, 8, 12, and 24 h following administration. After centrifuging all the samples at 8000 r/min for 5 min, the supernatants were stored at −80 °C until analysis. Subsequently, the plasma samples were transferred to a clean 1.5 mL centrifuge tube and spiked with 100 μL of the internal standard solution (gefitinib, 1.0 μg/mL). Methyl alcohol was then added to the mixture, vortexed for 2 min, and centrifuged at 13,000 r/min for 30 min. […] A 10 µL aliquot of each sample was injected into the LC-MS/MS system for analysis. The pharmacokinetic parameters, such as half-life (t1/2), time of peak plasma concentration (Tmax), maximum plasma concentration (Cmax), mean residence time (MRT), area under the concentration–time curve (AUC), and bioavailability (F), were determined using DAS 2.0 software.

phospho-EGFR [4] = assay: Western blotting of EGFR signaling in U87MG cells; type: cell-based; conditions: 2.5, 5 and 10 μM, 48 h
Protocol: (§2) The GBM cells were exposed to compound SMUZ106 at different concentrations (2.5, 5, and 10 μM) for 48 h, and the total proteins were extracted from the cells using RIPA lysis buffer. The concentration of the obtained protein was determined using the BCA Protein Assay Kit (Thermo Fisher, Waltham, MA, USA). Equivalent protein samples (30 μg) were subjected to SDS-PAGE gels and transferred to NC membranes (PALL, Port Washington, NY, USA). Then, the membranes were blocked with 5% milk in TBST for 1 h at RT and probed with primary antibodies diluted overnight at 4 °C, followed by incubation with appropriate secondary antibodies for 1 h at RT. Finally, the protein bands were visualized and scanned using an imaging system (ProteinSimple, Santa Clara, CA, USA).

HER4 [5] = target: T2, HER4 (Homo sapiens, UniProt Q15303); design: method as in PMID 27132165; conditions: Figure S1; read-out: IC50 HER4 kinase; cited from earlier work
T2 sequence (Q15303 26-1308): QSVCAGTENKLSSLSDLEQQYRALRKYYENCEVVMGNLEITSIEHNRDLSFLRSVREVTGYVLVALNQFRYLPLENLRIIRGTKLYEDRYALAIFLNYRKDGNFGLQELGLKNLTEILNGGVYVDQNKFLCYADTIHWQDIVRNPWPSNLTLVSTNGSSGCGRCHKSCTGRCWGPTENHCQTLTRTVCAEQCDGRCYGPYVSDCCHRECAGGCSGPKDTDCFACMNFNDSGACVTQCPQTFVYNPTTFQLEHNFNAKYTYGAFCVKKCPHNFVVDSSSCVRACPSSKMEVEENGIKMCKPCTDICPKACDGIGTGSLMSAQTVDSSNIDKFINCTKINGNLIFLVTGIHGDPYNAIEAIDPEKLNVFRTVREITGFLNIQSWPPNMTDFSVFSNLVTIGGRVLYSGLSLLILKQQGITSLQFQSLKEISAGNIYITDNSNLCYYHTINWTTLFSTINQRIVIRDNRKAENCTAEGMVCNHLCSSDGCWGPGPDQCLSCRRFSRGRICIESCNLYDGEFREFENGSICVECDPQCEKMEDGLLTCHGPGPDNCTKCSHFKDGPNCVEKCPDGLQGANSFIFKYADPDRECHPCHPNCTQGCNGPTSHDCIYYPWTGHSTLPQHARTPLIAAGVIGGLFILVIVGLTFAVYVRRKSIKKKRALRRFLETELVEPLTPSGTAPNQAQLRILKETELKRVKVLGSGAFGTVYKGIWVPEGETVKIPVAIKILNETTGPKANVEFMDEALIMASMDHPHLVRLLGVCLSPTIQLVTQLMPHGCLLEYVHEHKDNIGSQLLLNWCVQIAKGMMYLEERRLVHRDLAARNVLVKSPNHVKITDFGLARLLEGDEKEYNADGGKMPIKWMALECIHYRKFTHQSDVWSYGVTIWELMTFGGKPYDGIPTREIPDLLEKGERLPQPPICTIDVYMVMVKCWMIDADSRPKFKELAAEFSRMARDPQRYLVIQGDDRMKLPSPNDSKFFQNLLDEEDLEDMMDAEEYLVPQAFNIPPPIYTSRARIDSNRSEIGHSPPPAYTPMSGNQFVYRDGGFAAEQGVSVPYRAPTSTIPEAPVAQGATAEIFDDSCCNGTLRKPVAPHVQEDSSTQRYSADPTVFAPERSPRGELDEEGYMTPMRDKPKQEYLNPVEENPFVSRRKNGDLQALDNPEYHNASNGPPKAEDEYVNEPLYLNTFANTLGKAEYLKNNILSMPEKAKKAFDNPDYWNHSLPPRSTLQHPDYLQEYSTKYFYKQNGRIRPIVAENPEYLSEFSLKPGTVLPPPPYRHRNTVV

U87MG cells [6] = assay: MTT cell viability assay; type: cell-based; conditions: Homo sapiens, U-87 MG, 72 h
Protocol: (§3) U87MG, U251, U87MG-EGFRvIII, and U87MG-TMZR cells were cultured in DMEM supplemented with 10% FBS and plated at low density in 96-well plates (2000 cells per well). Then, the cells were treated with different concentrations of gefitinib or compound SMUZ106 for a period of 72 h. MTT (5 mg/mL) was added to each well, and the cells were incubated for another 4 h at 37 °C. The optical density value at 570 nm was measured using a microplate reader (TECAN, Männedorf, Switzerland).

[7] = tested on: U87MG-TMZR cells (TMZ-resistant U87MG cells); assay: MTT cell viability assay; type: cell-based; conditions: Homo sapiens, U-87 MG, 72 h
Protocol: as §3

U251 cells [8] = assay: MTT cell viability assay; type: cell-based; conditions: Homo sapiens, U-251, 72 h
Protocol: as §3

U87MG-EGFRvIII cells [9] = assay: MTT cell viability assay; type: cell-based; conditions: 72 h
Protocol: as §3

U87MG cells [10] = assay: Colony formation assay; type: cell-based; conditions: 1, 3 and 10 μM
Protocol: (§4) U87MG, U251, U87MG-EGFRvIII, and U87MG-TMZR cells were trypsinized, and suspended in 6-well plates. After a period of 24 h, the cells were exposed to compound SMUZ106 with different concentrations (1, 3, and 10 μM), and the U87MG-TMZR cells were exposed to compound SMUZ106 with different concentrations (3, 10, and 30 μM) for 72 h. After 10–14 days of cultivation, the cells were stained with 0.4% trypan blue to visualize the formed colony and to count the number of colonies by Enzyme-Linked Immunospot Analyzer (CTL, Shaker Heights, OH, USA).

U251 cells [11] = assay: Colony formation assay; type: cell-based; conditions: 1, 3 and 10 μM
Protocol: as §4

U87MG-TMZR cells = assay: Colony formation assay; type: cell-based; conditions: 3, 10 and 30 μM
Protocol: as §4

U87MG-EGFRvIII cells [12] = assay: Colony formation assay; type: cell-based; conditions: 1, 3 and 10 μM
Protocol: as §4

U87MG-EGFRvIII cells [13] = assay: Cell cycle analysis by flow cytometry (PI); type: cell-based; conditions: 48 h; for cells in S phase: control 35.68%; for cells in G0/G1 phase: control 50.82%
Protocol: (§5) U87MG-EGFRvIII cells were seeded into 6-well plates and treated with different concentrations of the compound SMUZ106 (2.5, 5, and 10 μM) for 48 h. Following the treatment, the cells were harvested, washed twice with cold PBS, and fixed overnight at 4 °C in 70% ethanol, then stained with PI solution to analyze the cell cycle distribution via flow cytometry. The results were determined using the ModFit LT 5.0 software. Each assay was performed in triplicates.

HER2 [14] = target: T3, HER2 (Homo sapiens, UniProt P04626); design: method as in PMID 27132165; conditions: Figure S1; read-out: IC50 HER2 kinase; cited from earlier work
T3 sequence (P04626 23-1255): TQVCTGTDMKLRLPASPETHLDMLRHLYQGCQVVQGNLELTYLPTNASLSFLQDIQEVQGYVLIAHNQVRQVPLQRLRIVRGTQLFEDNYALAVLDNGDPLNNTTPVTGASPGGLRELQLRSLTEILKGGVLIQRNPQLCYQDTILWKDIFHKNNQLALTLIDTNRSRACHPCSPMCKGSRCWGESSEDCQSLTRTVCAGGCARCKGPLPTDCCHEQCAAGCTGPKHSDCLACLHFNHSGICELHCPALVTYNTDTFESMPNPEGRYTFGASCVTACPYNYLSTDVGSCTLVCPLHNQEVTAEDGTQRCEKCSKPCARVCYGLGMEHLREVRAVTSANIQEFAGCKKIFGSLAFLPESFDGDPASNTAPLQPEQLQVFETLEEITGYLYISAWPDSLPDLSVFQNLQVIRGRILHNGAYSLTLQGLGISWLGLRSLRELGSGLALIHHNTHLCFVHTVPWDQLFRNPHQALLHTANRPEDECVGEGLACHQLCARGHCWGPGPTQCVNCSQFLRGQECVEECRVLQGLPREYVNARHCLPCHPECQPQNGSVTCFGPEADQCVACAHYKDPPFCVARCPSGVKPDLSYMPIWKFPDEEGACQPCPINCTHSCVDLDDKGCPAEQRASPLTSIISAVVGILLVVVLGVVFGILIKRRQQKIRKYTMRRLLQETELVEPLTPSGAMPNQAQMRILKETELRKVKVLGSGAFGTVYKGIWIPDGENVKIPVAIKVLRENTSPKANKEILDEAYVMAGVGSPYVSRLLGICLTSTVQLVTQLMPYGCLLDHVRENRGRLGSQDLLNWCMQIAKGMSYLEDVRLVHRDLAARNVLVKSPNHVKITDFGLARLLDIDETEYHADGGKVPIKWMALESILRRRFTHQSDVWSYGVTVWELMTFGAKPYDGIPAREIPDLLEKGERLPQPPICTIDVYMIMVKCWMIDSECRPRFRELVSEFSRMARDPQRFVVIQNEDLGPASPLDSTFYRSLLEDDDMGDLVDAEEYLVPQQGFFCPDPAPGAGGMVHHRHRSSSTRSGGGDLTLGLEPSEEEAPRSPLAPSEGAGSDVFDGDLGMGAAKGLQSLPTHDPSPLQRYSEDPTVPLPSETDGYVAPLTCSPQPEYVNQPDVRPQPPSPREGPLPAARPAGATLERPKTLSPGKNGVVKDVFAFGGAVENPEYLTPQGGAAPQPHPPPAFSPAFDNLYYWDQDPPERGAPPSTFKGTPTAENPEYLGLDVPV

Solubility by HPLC = type: physicochemical
Protocol: The solubility of the compound SMUZ106 and its related salts in artificial gastric juice, artificial intestinal fluid, and physiological saline were determined by HPLC. […] Therefore, SMUZ106 hydrochloride was selected for the pharmacokinetic analysis.

U87MG-EGFRvIII cells [15] = assay: Apoptosis analysis by flow cytometry (Annexin V-FITC/PI); type: cell-based; conditions: 48 h
Protocol: as §5
To perform the apoptosis analysis, after being washed with PBS, the cells were resuspended in 195 μL Annexin V-FITC binding solution, and then 5 µL of Annexin V-FITC was added, followed by 10 µL PI. Following incubation at room temperature for 20 min in the dark, cell apoptosis rates were detected by flow cytometry. The data were analyzed using FlowJo_V10 software.

phospho-EGFR [16] = assay: Western blotting of EGFR signaling in U87MG-EGFRvIII cells; type: cell-based; conditions: 2.5, 5 and 10 μM, 48 h
Protocol: as §2

HER4 [17] = target: T2, HER4; assay: HTRF KinEASE-TK single-point kinase assay; type: biochemical; conditions: read-out: inhibition rate HER4
Protocol: as §1

HER2 [18] = target: T3, HER2; assay: HTRF KinEASE-TK single-point kinase assay; type: biochemical; conditions: read-out: inhibition rate HER2
Protocol: as §1

EGFR [19] = target: T1, EGFR; assay: HTRF KinEASE-TK single-point kinase assay; type: biochemical; conditions: read-out: inhibition rate EGFR
Protocol: as §1

T1 sequence (P00533 25-1210): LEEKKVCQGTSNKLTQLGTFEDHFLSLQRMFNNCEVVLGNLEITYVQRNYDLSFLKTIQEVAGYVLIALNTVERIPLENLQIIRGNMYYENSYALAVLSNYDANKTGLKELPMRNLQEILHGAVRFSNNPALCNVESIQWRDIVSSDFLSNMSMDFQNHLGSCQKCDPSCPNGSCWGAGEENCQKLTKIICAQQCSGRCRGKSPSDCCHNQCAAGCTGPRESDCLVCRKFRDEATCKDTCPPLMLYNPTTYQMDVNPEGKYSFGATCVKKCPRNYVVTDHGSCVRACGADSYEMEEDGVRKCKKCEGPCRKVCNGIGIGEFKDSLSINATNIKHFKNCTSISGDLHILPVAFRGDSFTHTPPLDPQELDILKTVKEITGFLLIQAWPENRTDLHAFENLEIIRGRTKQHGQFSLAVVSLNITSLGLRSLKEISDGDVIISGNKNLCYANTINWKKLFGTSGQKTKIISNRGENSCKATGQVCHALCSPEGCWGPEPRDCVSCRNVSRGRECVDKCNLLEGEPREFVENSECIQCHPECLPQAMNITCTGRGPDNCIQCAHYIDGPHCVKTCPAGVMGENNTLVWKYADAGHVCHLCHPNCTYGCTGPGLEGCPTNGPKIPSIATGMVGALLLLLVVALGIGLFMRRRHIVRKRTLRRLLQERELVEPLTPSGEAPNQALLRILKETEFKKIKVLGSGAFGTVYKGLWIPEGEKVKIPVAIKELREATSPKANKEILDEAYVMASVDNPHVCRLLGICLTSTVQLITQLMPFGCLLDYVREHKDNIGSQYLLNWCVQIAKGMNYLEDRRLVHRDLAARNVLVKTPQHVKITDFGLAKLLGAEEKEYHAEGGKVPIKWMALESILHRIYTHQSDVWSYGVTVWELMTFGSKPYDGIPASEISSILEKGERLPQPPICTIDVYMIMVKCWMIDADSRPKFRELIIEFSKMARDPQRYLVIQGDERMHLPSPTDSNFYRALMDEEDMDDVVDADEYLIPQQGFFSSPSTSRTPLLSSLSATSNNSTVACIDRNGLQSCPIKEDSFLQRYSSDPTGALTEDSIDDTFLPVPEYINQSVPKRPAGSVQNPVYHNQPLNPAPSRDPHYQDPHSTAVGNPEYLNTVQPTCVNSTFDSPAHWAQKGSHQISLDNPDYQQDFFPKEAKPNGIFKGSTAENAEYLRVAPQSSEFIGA

For `c1cnc2ccc(Nc3ncnc4ccc(-c5cnn(C6CCNCC6)c5)cc34)cc2c1` [SMUZ106, 6-(1-(piperidin-4-yl)-1H-pyrazol-4-yl)-N-(quinolin-6-yl)quinazolin-4-amine], the IC50 (EGFR [1]) is listed as 0.0441 µM, the kinase selectivity [2] is listed as “excellent selectivity to EGFR” and the bioavailability ([3]; oral, p.o. 100 mg/kg vs i.v. 25 mg/kg, read-out: F (absolute bioavailability)) is listed as 29%. It also gave an AUC(0-inf) ([3]; po, p.o. 100 mg/kg) of 7510 ± 1060 ng·h/mL, a Cmax ([3]; po, p.o. 100 mg/kg) of 1190 ± 464 ng/mL and a Tmax ([3]; po, p.o. 100 mg/kg) of 6 h. The half-life ([3]; po, p.o. 100 mg/kg) was 0.87 ± 0.01 h, the MRT last ([3]; po, p.o. 100 mg/kg, read-out: MRT0→t) was 6.32 ± 0.22 h and the “phosphorylation levels of AKT and Erk1/2” value (phospho-EGFR [4]) was “did not significantly downregulate”. For the same compound, the “protein expression level of total EGFR” value (phospho-EGFR [4]) was “remained unchanged”, the “protein level of phospho-EGFR” value (phospho-EGFR [4]) was “decreased dose dependently” and the IC50 (HER4 [5]) was 0.93 µM. It also gave an IC50 (U87MG cells [6]) of 7.43 µM, an IC50 [7] of 7.86 µM and an IC50 (U251 cells [8]) of 10.3 µM. For the same compound, the IC50 (U87MG-EGFRvIII cells [9]) was 4.36 µM, the “clonogenicity (number of colonies)” value (U87MG cells [10]) was “significantly decreased the clonogenicity” and the “clonogenicity (number of colonies)” value (U251 cells [11]) was “significantly decreased the clonogenicity”. The clone formation (U87MG-TMZR cells) was “could inhibit the proliferation of TMZ-resistant U87MG cells”, the “clonogenicity (number of colonies)” value (U87MG-EGFRvIII cells [12]) was “significantly decreased the clonogenicity” and the “cells in S phase” value (U87MG-EGFRvIII cells [13]; 2.5 μM) was 27.08%. The “cells in G0/G1 phase” value (U87MG-EGFRvIII cells [13]; 2.5 μM) was 54.44%, the “cells in S phase” value (U87MG-EGFRvIII cells [13]; 5 μM) was 24.01% and the “cells in G0/G1 phase” value (U87MG-EGFRvIII cells [13]; 5 μM) was 58.17%. The “cells in S phase” value (U87MG-EGFRvIII cells [13]; 10 μM) was 20.78%, the “cells in G0/G1 phase” value (U87MG-EGFRvIII cells [13]; 10 μM) was 62.50% and the IC50 (HER2 [14]) was 0.874 µM. The solubility (Solubility by HPLC; artificial gastric juice, simulated gastric fluid) was 16.8 mg/mL (≈ 39.8 mM), the solubility (Solubility by HPLC; artificial intestinal juice, fassgf or other biorelevant) was 0.22 mg/mL (≈ 0.522 mM) and the solubility (Solubility by HPLC; medium not named in the sentence (values match artificial gastric juice of Table S2)) was 16.8 mg/mL (≈ 39.8 mM). For the same compound, the solubility (Solubility by HPLC; normal saline, saline or isotonic) was 3.69 mg/mL (≈ 8.75 mM), the “percentage of apoptotic cells” value (U87MG-EGFRvIII cells [15]; 2.5 μM) was 2.34% and the “percentage of apoptotic cells” value (U87MG-EGFRvIII cells [15]; 5 μM) was 2.70%. The “percentage of apoptotic cells” value (U87MG-EGFRvIII cells [15]; 10 μM) was 3.02%, the “phosphorylation levels of AKT and Erk1/2” value (phospho-EGFR [16]) was “did not significantly downregulate” and the “protein expression level of total EGFR” value (phospho-EGFR [16]) was “remained unchanged”. For the same compound, the “protein level of phospho-EGFR” value (phospho-EGFR [16]) was “decreased dose dependently”, the inhibition at 1 µM (HER4 [17]) was 87.3% and the inhibition at 1 µM (HER2 [18]) was 75.4%. For the same compound, the inhibition at 1 µM (EGFR [19]) was 98.7%.

Work on `Cn1nnc2c(C(N)=O)ncn2c1=O` [TMZ, temozolomide, reference compound] yielded an IC50 (U87MG cells [6]) of 501 µM and an IC50 [7] of 2040 µM.
